# Test results published in patent US11414424B2, “Cardiac sarcomere inhibitors” (Cytokinetics, Inc., priority 2018, dated 2022).
# System: bovine cardiac myofibrils
# Test: Myofibril assay: PK/LDH-coupled steady-state ATPase activity of skinned bovine cardiac myofibrils
# Format: biochemical
# Conditions: Ca2+ activating to 75% of maximal rate
# Experimental: To evaluate the effect of compounds on the ATPase activity of full-length cardiac myosin in the context of the native sarcomere, skinned myofibril assays were performed. Bovine cardiac myofibrils were obtained by homogenizing bovine cardiac left ventricular tissue in the presence of a detergent such as triton X-100. Such treatment removes membranes and a majority of the soluble cytoplasmic proteins but leaves intact the cardiac sarcomeric acto-myosin apparatus. Myofibril preparations retain the ability to hydrolyze ATP in a Ca^2+ regulated manner. ATPase activities of such myofibril preparations in the presence and absence of compounds were assayed at Ca^2+ concentrations activating to a defined fraction of the maximal rate (i.e., […], 75%). Small molecule agents were assessed for their ability to inhibit the steady-state ATPase activity of bovine cardiac myofibrils using pyruvate kinase and lactate dehydrogenase (PK/LDH)-coupled enzyme system. This assay regenerates myosin-produced ADP into ATP by oxidizing NADH, producing an absorbance change at 340 nm. Prior to testing small molecule agents, the bovine cardiac myofibrils were assessed for their calcium responsiveness and the calcium concentration that achieves either a 50% (pCa50) or 75% (pCa75) activation of the myofibril system was chosen as the final condition for assessing the inhibitory activity of the small molecule agents. All enzymatic activity was measured in a buffered solution containing 12 mM PIPES (piperazine-N,N′-bis(2-ethanesulfonic acid), 2 mM magnesium chloride at pH 6.8 (PM 12 buffer). Final assay conditions were 1 mg/mL of bovine cardiac myofibrils, 4 U/mL pyruvate kinase, 6 U/mL lactate dehydrogenase, 50 μM ATP, 0.1 mg/mL BSA (bovine serum albumin), 10 ppm antifoam, 1 mM DTT, 0.5 mM NADH, 1.5 mM PEP, 0.6 mM EGTA, and an amount of CaCl2 sufficient to achieve either 50% or 75% activation of the myofibril ATPase activity. Results for compounds tested are provided in Table A. Compounds tested were prepared in accordance with the synthetic procedures described herein.
row,Compound,CDMF75 IC15 [µM]
1,"Cc1ccc(N2CC3(C2)C(=O)N(C(C)C)CC(=O)N3Cc2ccc(Cl)cc2)cn1 [Compound 14, 5-(4-chlorobenzyl)-8-isopropyl-2-(6-methyl-pyridin-3-yl)-2,5,8-triazaspiro[3.5]nonane-6,9-dione]",6.0
2,"Cc1ccnc(N2CC3(C2)C(=O)N(C(C)C)CC(=O)N3Cc2ccc(Cl)cc2)c1 [Compound 15, 5-(4-chlorobenzyl)-8-isopropyl-2-(4-methyl-pyridin-2-yl)-2,5,8-triazaspiro[3.5]nonane-6,9-dione]",2.7
3,"Cc1cncc(N2CC3(C2)C(=O)N(C(C)C)CC(=O)N3Cc2ccc(Cl)cc2)c1 [Compound 16, 5-(4-chlorobenzyl)-8-isopropyl-2-(5-methyl-pyridin-3-yl)-2,5,8-triazaspiro[3.5]nonane-6,9-dione]",2.7
4,"CC(C)N1CC(=O)N(Cc2ccc(Cl)cc2)C2(CN(c3ccc(F)cn3)C2)C1=O [Compound 17, 5-(4-chlorobenzyl)-2-(5-fluoropyridin-2-yl)-8-isopropyl-2,5,8-triazaspiro[3.5]nonane-6,9-dione]",1.7
5,"CC(C)N1CC(=O)N(Cc2ccc(Cl)cc2)C2(CN(c3cncc(F)c3)C2)C1=O [Compound 18, 5-(4-chlorobenzyl)-2-(5-fluoropyridin-3-yl)-8-isopropyl-2,5,8-triazaspiro[3.5]nonane-6,9-dione]",3.1
6,"CC(C)N1CC(=O)N(Cc2ccc(Cl)cc2)C2(CN(c3ccncn3)C2)C1=O [Compound 19, 5-(4-chlorobenzyl)-8-isopropyl-2-(pyrimidin-4-yl)-2,5,8-triazaspiro-[3.5]nonane-6,9-dione]",5.7
7,"CC(C)N1C(=O)C2(CN(c3ccc(F)cc3)C2)N(Cc2ccc(Cl)cc2)C(=O)C1C (stereo not drawn) [Compound 20, 5-(4-chlorobenzyl)-2-(4-fluorophenyl)-8-isopropyl-7-methyl-2,5,8-triazaspiro[3.5]nonane-6,9-dione]",7.5
8,"CC(C)N1CC(=O)N(Cc2ccc(Cl)cc2)C2(CN(c3cnn(C)c3)C2)C1=O [Compound 21, 5-(4-chlorobenzyl)-8-isopropyl-2-(1-methyl-1H-pyrazol-4-yl)-2,5,8-triazaspiro[3.5]nonane-6,9-dione]",2.6
9,"CC(C)N1CC(=O)N(Cc2ccc(Cl)cc2)C2(CN(c3nccs3)C2)C1=O [Compound 22, 5-(4-chlorobenzyl)-8-isopropyl-2-(thiazol-2-yl)-2,5,8-triazaspiro[3.5]-nonane-6,9-dione]",4.1
10,"CC(C)N1CC(=O)N(Cc2ccc(Cl)cc2)C2(CN(c3cccnn3)C2)C1=O [Compound 23, 5-(4-chlorobenzyl)-8-isopropyl-2-(pyridazin-3-yl)-2,5,8-triazaspiro[3.5]-nonane-6,9-dione]",2.2
11,"CC(C)N1CC(=O)N(Cc2ccc(Cl)cc2)C2(CN(c3ccnnc3)C2)C1=O [Compound 24, 5-(4-chlorobenzyl)-8-isopropyl-2-(pyridazin-4-yl)-2,5,8-triazaspiro[3.5]-nonane-6,9-dione]",5.7
12,"CC(C)N1CC(=O)N(Cc2ccc(Cl)cc2)C2(CN(c3cncnc3)C2)C1=O [Compound 25, 5-(4-chlorobenzyl)-8-isopropyl-2-(pyrimidin-5-yl)-2,5,8-triazaspiro-[3.5]nonane-6,9-dione]",8.8
13,"Cc1cc(N2CC3(C2)C(=O)N(C(C)C)CC(=O)N3Cc2ccc(Cl)cc2)n[nH]1 [Compound 26, 5-(4-chlorobenzyl)-8-isopropyl-2-(5-methyl-1H-pyrazol-3-yl)-2,5,8-triazaspiro[3.5]nonane-6,9-dione]",3.0
14,"CC(C)N1CC(=O)N(Cc2ccc(Cl)cc2)C2(CN(c3ccnc(C#N)c3)C2)C1=O [Compound 27, 4-(5-(4-chlorobenzyl)-8-isopropyl-6,9-dioxo-2,5,8-triazaspiro[3.5]nonan-2-yl)picolinonitrile]",8.6
15,"CC(C)N1CC(=O)N(Cc2ccc(Cl)cc2)C2(CN(c3ccnc(O)c3)C2)C1=O [Compound 28, 5-(4-chlorobenzyl)-2-(2-hydroxypyridin-4-yl)-8-isopropyl-2,5,8-triazaspiro[3.5]nonane-6,9-dione]",3.1
16,"CC(C)N1CC(=O)N(Cc2ccc(Cl)cc2)C2(CN(c3ccnc(C(F)F)c3)C2)C1=O [Compound 29, 5-(4-chlorobenzyl)-2-(2-(difluoromethyl)pyridin-4-yl)-8-isopropyl-2,5,8-triazaspiro[3.5]nonane-6,9-dione]",5.6
17,"Cc1ccc(CN2C(=O)CN(C(C)C)C(=O)C23CN(c2ccnc(C)c2)C3)cc1 [Compound 30, 8-isopropyl-5-(4-methylbenzyl)-2-(2-methylpyridin-4-yl)-2,5,8-triazaspiro[3.5]-nonane-6,9-dione]",21.1
18,"Cc1cc(N2CC3(C2)C(=O)N(C(C)C)CC(=O)N3Cc2ccc(C(F)(F)F)cc2)ccn1 [Compound 31, 8-isopropyl-2-(2-methylpyridin-4-yl)-5-(4-(trifluoromethyl)benzyl)-2,5,8-triazaspiro[3.5]-nonane-6,9-dione]",2.7
19,"CC(C)N1CC(=O)N(Cc2ccc(Cl)cc2)C2(CN(c3cscn3)C2)C1=O [Compound 32, 5-(4-chlorobenzyl)-8-isopropyl-2-(thiazol-4-yl)-2,5,8-triazaspiro[3.5]-nonane-6,9-dione]",9.6
20,"CC(C)N1CC(=O)N(Cc2ccc(Cl)cc2)C2(CN(c3cncs3)C2)C1=O [Compound 33, 5-(4-chlorobenzyl)-8-isopropyl-2-(thiazol-5-yl)-2,5,8-triazaspiro[3.5]-nonane-6,9-dione]",5.4
21,"CC(C)N1CC(=O)N(Cc2ccc(Cl)cc2)C2(CN(c3ccnc(C4CC4)c3)C2)C1=O [Compound 34, 5-(4-chlorobenzyl)-2-(2-cyclopropylpyridin-4-yl)-8-isopropyl-2,5,8-triazaspiro[3.5]nonane-6,9-dione]",10.4
22,"COC(=O)c1cc(N2CC3(C2)C(=O)N(C(C)C)CC(=O)N3Cc2ccc(Cl)cc2)ccn1 [Compound 35, methyl 4-(5-(4-chloro-benzyl)-8-isopropyl-6,9-dioxo-2,5,8-triazaspiro[3.5]nonan-2-yl)picolinate]",14.6
23,"CC(C)N1CC(=O)N(Cc2ccc(Cl)cc2)C2(CN(c3ccnc(C(=O)O)c3)C2)C1=O [Compound 36, 4-(5-(4-chlorobenzyl)-8-isopropyl-6,9-dioxo-2,5,8-triazaspiro[3.5]nonan-2-yl)picolinic acid]",24.5
24,"CC(C)N1CC(=O)N(Cc2ccc(Cl)cc2)C2(CN(c3ccnc(C(N)=O)c3)C2)C1=O [Compound 37, 4-(5-(4-chlorobenzyl)-8-isopropyl-6,9-dioxo-2,5,8-triazaspiro[3.5]nonan-2-yl)picolinamide]",6.0
25,"CNC(=O)c1cc(N2CC3(C2)C(=O)N(C(C)C)CC(=O)N3Cc2ccc(Cl)cc2)ccn1 [Compound 38, 4-(5-(4-chlorobenzyl)-8-isopropyl-6,9-dioxo-2,5,8-triazaspiro-[3.5]nonan-2-yl)-N-methylpicolinamide]",12.4
26,"CC(C)N1CC(=O)N(Cc2ccc(Cl)cc2)C2(CN(c3nc(C(F)(F)F)cs3)C2)C1=O [Compound 39, 5-(4-chlorobenzyl)-8-isopropyl-2-(4-(trifluoromethyl)thiazol-2-yl)-2,5,8-triazaspiro-[3.5]nonane-6,9-dione]",3.9
27,"CC(C)N1CC(=O)N(Cc2ccc(Cl)cc2)C2(CN(c3nc(C(N)=O)cs3)C2)C1=O [Compound 40, 2-(5-(4-chlorobenzyl)-8-isopropyl-6,9-dioxo-2,5,8-triazaspiro[3.5]nonan-2-yl)thiazole-4-carboxamide]",7.2
28,"CC(C)N1CC(=O)N(Cc2ccc(Cl)cc2)C2(CN(c3cn[nH]c3)C2)C1=O [Compound 41, 5-(4-chlorobenzyl)-8-isopropyl-2-(1H-pyrazol-4-yl)-2,5,8-triazaspiro-[3.5]nonane-6,9-dione]",7.0
29,"CC(C)N1CC(=O)N(Cc2ccc(Cl)cc2)C2(CN(c3ccn(C)c(=O)c3)C2)C1=O [Compound 42, 5-(4-chlorobenzyl)-8-isopropyl-2-(1-methyl-2-oxo-1,2-dihydropyridin-4-yl)-2,5,8-triazaspiro-[3.5]nonane-6,9-dione]",5.4
30,"Cc1csc(N2CC3(C2)C(=O)N(C(C)C)CC(=O)N3Cc2ccc(Cl)cc2)n1 [Compound 43, 5-(4-chlorobenzyl)-8-isopropyl-2-(4-methyl-thiazol-2-yl)-2,5,8-triazaspiro[3.5]nonane-6,9-dione]",3.3
